{"source": "patent US7582601B2", "about": "“Use of tryptophan rich peptides” (Campina B.V., priority 2003, dated 2009)", "system": "cholecystokinin (CCK) level in plasma", "test": "Plasma CCK levels in human volunteers after ingestion of test substance in orange juice (RIA)", "assay_type": "in vivo", "settings": "healthy fasted human volunteers, n = 8", "experimental": "The experiment described below was performed in a double-blind, four period, randomised, cross-over, placebo controlled study.\nEight healthy human volunteers were divided into four groups of two, and were refrained from any food overnight.\nThe experiment was repeated four times such, that all the eight volunteers eventually obtained aal the four test substances. During the four hours following the ingestion of the orange juice, blood was taken from the test persons at t=0, 30, 60 90, 120, 180 and 240 minutes after ingestion. CCK analysis was carried out using a radio-immunoassay (RIA) kit of Euro-Diagnostica (cat nr. #RB302) according to the instructions of the manufacturer.", "data": [{"smiles": "N[C@@H](Cc1c[nH]c2ccccc12)C(=O)O", "note": "[Tryptophan, tryptophan]", "values": [{"measurement": "Mean CCK levels in plasma", "setting": "0 minutes after ingestion, oral in 200 ml orange juice (25 g glucose), mean ± spread", "value": "0.64 ± 0.78", "unit": "pmol/L"}, {"measurement": "Mean CCK levels in plasma", "setting": "30 minutes after ingestion, oral in orange juice", "value": "1.49 ± 1.04", "unit": "pmol/L"}, {"measurement": "Mean CCK levels in plasma", "setting": "60 minutes after ingestion, oral in orange juice", "value": "1.05 ± 1.06", "unit": "pmol/L"}, {"measurement": "Mean CCK levels in plasma", "setting": "90 minutes after ingestion, oral in orange juice", "value": "0.83 ± 0.84", "unit": "pmol/L"}, {"measurement": "Mean CCK levels in plasma", "setting": "120 minutes after ingestion, oral in orange juice", "value": "0.34 ± 0.11", "unit": "pmol/L"}, {"measurement": "Mean CCK levels in plasma", "setting": "180 minutes after ingestion, oral in orange juice", "value": "0.30 ± 0.00", "unit": "pmol/L"}, {"measurement": "Mean CCK levels in plasma", "setting": "240 minutes after ingestion, oral in orange juice", "value": "0.30 ± 0.00", "unit": "pmol/L"}]}]}
